Experimental data taken from US20150212087A1, “Detection of the ERalpha/Src/PI3K Complex as Predictive Marker in Breast Cancer” (Centre Leon Berard, priority 2012, published 2015).

Tests used:
[1] = system: ERα/PI3K interaction; test: In situ Proximity Ligation Assay (PLA) detection of ERα/PI3K interaction in MCF-7 cells; format: cell-based, human; conditions: upon treatment
Source text: (§1) Castoria et al. reported that estrogen rapidly triggers the interaction of ERα with Src and PI3K in MCF-7 cells, forming a complex involved in estrogen nongenomic-induced cell proliferation. […] Therefore the physiological relevance of this signaling pathway remains questionable. To date, immuno fluorescence analysis of the complex has been impeded by the fact that only a small population of ERα interacts with Src and PI3K. To circumvent this problem, we used a newly developed technique, the Proximity Ligation Assay. […] We investigated the ERα/PI3K interaction in the human breast tumor cell line MCF-7, using a rabbit anti-ERα together with a mouse anti-p85 antibody. The ERα/Src interaction was detected using the same anti-ERα together with a mouse anti-Src antibody. […] No dots were detected using only one antibody as confirmed by counting dots per 100 cells (FIG. 1, around 50 dots/cell versus less than 5). Importantly, the number of red dots increased after 5 min of estrogenic treatment then decreased after 15 min. This confirmed that upon estrogenic treatment, the formation of this complex is rapid and transitory (FIG. 2:)). […] They were detected exclusively in the […] of MCF-7 cells, as expected. […]

[2] = system: ERα/Src interaction; test: In situ Proximity Ligation Assay (PLA) detection of ERα/Src interaction in MCF-7 cells; format: cell-based, human; conditions: upon treatment
Source text: as §1

## Cc1ccc(-c2nn(C(C)(C)C)c3ncnc(N)c23)cc1 [PP1]
[1]
  ERα/PI3K interaction (red dots) by PLA: significant decrease of red dots
[2]
  ERα/Src interaction (red dots) by PLA: significant decrease of red dots

## CC/C(=C(\c1ccccc1)c1ccc(OCCN(C)C)cc1)c1ccccc1 [tamoxifen]
[1]
  ERα/PI3K interaction (red dots) by PLA: decrease
[2]
  ERα/Src interaction (red dots) by PLA: decrease
